Assay results reported in article PMC4196226 (mBio, 2014).
Converted amounts (≈) assume the structure as drawn.

What was measured:
Assay type in all cases: cell-based
K. pneumoniae = assay: microbe, parasite or virus in culture; details: Klebsiella pneumoniae
A. baumannii = assay: MIC assay; details: Acinetobacter baumannii
B. cepacia = assay: MIC assay; details: Burkholderia cepacia
P. aeruginosa = assay: microbe, parasite or virus in culture; details: Pseudomonas aeruginosa
S. maltophilia = assay: MIC assay; details: Stenotrophomonas maltophilia

Structure (SMILES): C[C@@H](O)[C@H]1C(=O)N2C(C(=O)O)=C(S[C@@H]3CN[C@H](C(=O)N(C)C)C3)[C@H](C)[C@H]12 [MPM, meropenem]
- MIC90 (K. pneumoniae): 32 µg/mL (≈ 83.4 µM)
- MIC90 (A. baumannii): 32 µg/mL (≈ 83.4 µM)
- MIC90 (B. cepacia): 8 µg/mL (≈ 20.9 µM)
- MIC90 (P. aeruginosa): > 64 µg/mL
- MIC90 (S. maltophilia): > 64 µg/mL
